# US20190255091A1, “RNAi AGENTS FOR [sequence] B VIRUS INFECTION” (priority 2016, published 2019)
# Several values for one entry are separate records, joined by “and”; a condition that tells them apart may be missing. Identical values can stand only once.
# Experiments:
# Assay type in all cases: in vivo
# [1] = tested on: Hepatitis B Virus (HBV); assay: Serum HBsAg levels in pHBV model mice (ELISA); parameters: key to Average HBsAg levels normalized to pre-treatment (day −1) and PBS control / Average HBsAg levels normalized to pre-treatment and PBS control: fraction of pre-treatment level, relative to PBS control mean; settings: for Average HBsAg normalized to pre-treatment and PBS control: 2.0 mg/kg, single s.c. injection on day 1
# Excerpt: (§1) Six to eight-week-old female NOD.CB17-Prkdscid/NcrCrl (NOD-SCID) mice were transiently transfected in vivo with MC-HBV1.3 by hydrodynamic tail vein injection (Yang P L et al. “Hydrodynamic injection of viral DNA: a mouse model of acute hepatitis B virus infection,” PNAS USA 2002 Vol. 99: p. 13825-13830), administered 30 to 45 days prior to administration of an HBV RNAi agent or control. MC-HBV1.3 is a plasmid-derived minicircle that contains the same terminally redundant human hepatitis B virus sequence HBV1.3 as in plasmid pHBV1.3 and in the HBV1.3.32 transgenic mice (GenBank accession #V01460) (Guidotti L G et al., “High-level hepatitis B virus replication in transgenic mice,” J Virol 1995 Vol. 69, p 6158-6169.). 5 or 10 μg MC-HBV1.3 in Ringer's Solution in a total volume of 10% of the animal's body weight was injected into mice via tail vein to create pHBV model of chronic HBV infection. The solution was injected through a 27-gauge needle in 5-7 seconds as previously described (Zhang G et al., “High levels of foreign gene expression in hepatocytes after tail vein injection of naked plasmid DNA.” Human Gene Therapy 1999 Vol. 10, p 1735-1737.). At pre-dose (either day 1 pre-dose, day −1, or day −2), Hepatitis B surface antigen (HBsAg) HBsAg expression levels in serum were measured by ELISA and the mice were grouped according to average HBsAg expression levels.
# (§2) HBV expression levels were normalized to pre-administration expression levels and to control mice injected with phosphate buffered saline (“PBS”).
# Mice were anesthetized with 2-3% isoflurane and blood samples were collected from the submandibular area into serum separation tubes (Sarstedt AG & Co., Nümbrecht, Germany). Blood was allowed to coagulate at ambient temperature for 20 min. The tubes were centrifuged at 8,000×g for 3 min to separate the serum and stored at 4° C.
# Serum was collected and diluted 10 to 8000-fold in PBS containing 5% nonfat dry milk. […] HBsAg levels were determined with a GS HBsAg EIA 3.0 kit (Bio-Rad Laboratories, Inc., Redmond, Wash.) as described by the manufacturer. Recombinant HBsAg protein, ayw subtype, also diluted in nonfat milk in PBS, was used as a primary standard (Aldevron).
# HBsAg expression for each animal was normalized to the control group of mice injected with PBS in order to account for the non-treatment related decline in expression of MC-HBV1.3. First, the HBsAg level for each animal at a time point was divided by the pre-treatment level of expression in that animal in order to determine the ratio of expression “normalized to pre-treatment”. Expression at a specific time point was then normalized to the control group by dividing the “normalized to pre-treatment” ratio for an individual animal by the average “normalized to pre-treatment” ratio of all mice in the normal PBS control group.
# [2] = tested on: Hepatitis B Virus (HBV); assay: Serum HBV DNA levels in pHBV model mice (qPCR); settings: 0.8 mg/kg, injection on day 1 and day 22, Example 16
# Excerpt: as §1, §2
# Equal volumes of serum from mice in a group or subgroup were pooled to a final volume of 100 μL. DNA was isolated from serum samples using the QIAamp MinElute Virus Spin Kit (Qiagen, Valencia, Calif.) following the manufacturer's instructions. Sterile 0.9% saline was added to each sample to a final volume of 200 μL. Serum samples were added to tubes containing buffer and protease. Carrier RNA was added to aid in the isolation of small amounts of DNA. […] After incubating 15 min at 56° C., nucleic acids were precipitated from the lysates with ethanol and the entire solution applied to a column. After washing, the samples were eluted into a volume of 50 μL Buffer AVE.
# The number of copies of HBV genomes in DNA isolated from the pHBV mouse model serum was determined by qPCR. Plasmid pSEAP-HBV353-777, encoding a short segment of the HBV genome within the S gene (bases 353-777 of GenBank accession #V01460), was used to create a six log standard curve. Samples with recovery of DNA below 2 standard deviations from the average, based on detection of pHCR/UbC-SEAP were omitted. TaqMan chemistry-based primers and probes with fluor/ZEN/IBFQ are utilized.
# qPCR assays were performed on a 7500 Fast or StepOne Plus Real-Time PCR system (Life Technologies). For evaluation of HBV DNA in serum, DNA was isolated from singlet or duplicate purification steps from pooled group serum samples. Quantitations of HBV DNA and recovery control plasmid were determined by qPCR reactions performed in triplicate. The probes to quantitate HBV and pHCR/UbC-SEAP were included in each reaction.
# [3] = tested on: Hepatitis B Virus (HBV); assay: Serum HBeAg levels in pHBV model mice (ELISA); settings: 0.8 mg/kg, injection on day 1 and day 22, Example 16
# Excerpt: as §1, §2
# HBeAg analysis was performed with the HBeAg enzyme linked immunosorbent assay (ELISA) as described by the manufacturer (DiaSorin) using serum diluted 4- to 20-fold in 5% nonfat dry milk. The amount of antigen was determined in the linear range of the assay and quantitated against HBeAg protein standards (Fitzgerald Industries International, catalog #30-AH18, Acton, Mass.).
# HBeAg expression for each animal was normalized to the control group of mice injected with PBS in order to account for the non-treatment related decline in expression of MC-HBV1.3. For evaluation of HBeAg in serum, HBeAg is analyzed from pooled group or subgroup serum samples. First, the HBeAg level for each pooled group or subgroup was divided by the pre-treatment level of expression in the same group or subgroup in order to determine the ratio of expression “normalized to pre-treatment”. Expression at a specific time point was then normalized to the control group by dividing the “normalized to pre-treatment” ratio for a group or subgroup by the average “normalized to pre-treatment” ratio of all samples from the normal PBS control group.
# [4] = tested on: HBV genotype C; assay: Serum HBsAg levels in HBV-infected humanized FRG model mice; settings: Group A: daily oral 0.01 mg/kg Entecavir, PBS (no RNAi agent), individual mouse
# Excerpt: (§3) For this study, Male FRG® (genotype Fah−/−/Rag2−/−/Il2rg−/− triple knockout mice on a C57BL/6 background (Yecuris) were transplanted with human hepatocytes when they were 1-2 months old. The human hepatocytes were allowed to repopulate the liver for approximately 6 months with periodic NTBC treatment to discourage growth of mouse hepatocytes. At 9 months of age the mice were given an intravenous inoculation of 4×10^8 genomes/kg HBV genotype C, which infected the human hepatocytes. After 2-3 months, serum HBV DNA levels reached a plateau indicating the human hepatocytes were maximally infected (mouse hepatocytes cannot be infected by HBV). Mice were one year old at the start of treatment with HBV RNAi agents, thus nearing the end of their life span.
# (§4) Pre-treatment serum samples were taken on day −10 and day −3. Beginning on day 1, each mouse was administered an oral daily gavage with 0.01 mg/kg Entecavir dissolved in water to inhibit HBV replication. Daily dosing of Entecavir continued until the day mice were euthanized. Entecavir administration was expected to reduce serum HBV DNA in chronically infected human patients, but not reduce HBsAg.
# (§5) Each mouse was also given a subcutaneous administration of 100 μl per 20 grams body weight containing the amount of HBV RNAi agent(s) formulated in phosphate buffered saline, or an equal volume of phosphate buffered saline without an HBV RNAi agent, on day 1 and on day 29 (if still alive on day 29), pursuant to the schedule as set forth in Table 47, directly above. […] The injections were performed between the skin and muscle (i.e. subcutaneous injections) into the loose skin over the neck and shoulder area.
# Serum was collected on day 8, day 15, day 22, day 29, day 36, and day 40 and serum Hepatitis B surface antigen (HBsAg) levels were determined pursuant to the procedure set forth in Example 2, above.
# [5] = tested on: HBV genotype C; assay: Serum HBV DNA levels in HBV-infected humanized FRG model mice
# Excerpt: as §3, §4, §5
# Additionally, serum HBV DNA levels were determined from serum samples collected on days −10, −3, 8, 15, 22, 29, 36, and 40, pursuant to the procedure set forth in Example 2, above.
molecule,measurement,setting,value
AD05070: HBV RNAi agent duplex AM06606-AS/AM06605-SS (antisense UACCAAUUUAUGCCUACAGCG; sense CGCUGUAGGCAUAAAUUGGUA; chemistry not fully specified),Average HBsAg levels normalized to pre-treatment and PBS control,"[1]; Day 8, 0.8 mg/kg, injection on day 1 and day 22, Example 16",0.446 ± 0.143
same,Average HBsAg levels normalized to pre-treatment and PBS control,"[1]; Day 8, 0.8 mg/kg, single s.c. injection day 1, Example 8",0.355 ± 0.099 and 0.271 ± 0.058
same,Average HBsAg normalized to pre-treatment and PBS control,"[1]; Day 8, Example 15",0.081 ± 0.026
same,Average HBsAg levels normalized to pre-treatment and PBS control,"[1]; Day 14, 0.8 mg/kg, single s.c. injection day 1, Example 8",0.366 ± 0.069 and 0.334 ± 0.060
same,Average HBsAg levels normalized to pre-treatment and PBS control,"[1]; Day 14, 4.0 mg/kg, single s.c. injection day 1, Example 8",0.069 ± 0.039 and 0.079 ± 0.047
same,Average HBsAg levels normalized to pre-treatment and PBS control,"[1]; Day 15, 0.8 mg/kg, injection on day 1 and day 22, Example 16",0.376 ± 0.120
same,Average HBsAg normalized to pre-treatment and PBS control,"[1]; Day 15, Example 15",0.127 ± 0.031
same,Average HBsAg levels normalized to pre-treatment and PBS control,"[1]; Day 21, 0.8 mg/kg, single s.c. injection day 1, Example 8",0.464 ± 0.055
same,Average HBsAg levels normalized to pre-treatment and PBS control,"[1]; Day 21, 4.0 mg/kg, single s.c. injection day 1, Example 8",0.145 ± 0.082
same,Average HBsAg levels normalized to pre-treatment and PBS control,"[1]; Day 22, 0.8 mg/kg, injection on day 1 and day 22, Example 16",0.474 ± 0.149
same,Average HBsAg normalized to pre-treatment and PBS control,"[1]; Day 22, Example 15",0.223 ± 0.057
same,Average HBsAg levels normalized to pre-treatment and PBS control,"[1]; Day 28, 0.8 mg/kg, single s.c. injection day 1, Example 8",0.624 ± 0.053
same,Average HBsAg levels normalized to pre-treatment and PBS control,"[1]; Day 28, 4.0 mg/kg, single s.c. injection day 1, Example 8",0.135 ± 0.061
same,Average HBsAg levels normalized to pre-treatment and PBS control,"[1]; Day 29, 0.8 mg/kg, injection on day 1 and day 22, Example 16",0.338 ± 0.123
same,Average HBsAg normalized to pre-treatment and PBS control,"[1]; Day 29, Example 15",0.330 ± 0.112
same,Average HBsAg normalized to pre-treatment and PBS control,"[1]; Day 36, Example 15",0.472 ± 0.121
same,Average HBsAg normalized to pre-treatment and PBS control,"[1]; Day 43, Example 15",0.515 ± 0.126
same,Average HBsAg normalized to pre-treatment and PBS control,"[1]; Day 50, Example 15",0.689 ± 0.167
same,knockdown of HBsAg compared to PBS control,"[1]; Example 15, administered alone or in combination with AD04872, across each of the time points measured",significant knockdown of HBsAg
same,Average Serum HBV DNA levels normalized to pre-treatment and PBS control,[2]; Day 8,1.124 ± 0.142
same,Average Serum HBV DNA levels normalized to pre-treatment and PBS control,[2]; Day 15,0.742 ± 0.127
same,Average Serum HBV DNA levels normalized to pre-treatment and PBS control,[2]; Day 22,0.807 ± 0.192
same,Average HBeAg levels normalized to pre-treatment and PBS control,[3]; Day 8,0.634
same,Average HBeAg levels normalized to pre-treatment and PBS control,[3]; Day 15,0.594 ± 0.082
same,Average HBeAg levels normalized to pre-treatment and PBS control,[3]; Day 22,0.840 ± 0.152
same,Average HBeAg levels normalized to pre-treatment and PBS control,[3]; Day 29,0.271 ± 0.029
C=C1[C@H](CO)[C@@H](O)C[C@@H]1n1cnc2c(=O)[nH]c(N)nc21 [Entecavir],"HBsAg levels normalized to pre-treatment (day −3), Day 8",[4]; Day 8,0.830 and 1.303
same,"HBsAg levels normalized to pre-treatment (day −3), Day 15",[4]; Day 15,0.828 and 1.328
same,"HBsAg levels normalized to pre-treatment (day −3), Day 22",[4]; Day 22,0.932
same,"HBsAg levels normalized to pre-treatment (day −3), Day 29",[4]; Day 29,0.858
same,"HBsAg levels normalized to pre-treatment (day −3), Day 36",[4]; Day 36,1.107
same,viral replication (serum HBV DNA),"[5]; Example 18, 0.01 mg/kg oral daily gavage, absence and presence of HBV RNAi agents",reduced viral replication
same,"Serum HBV DNA levels normalized to the average of pre-treatment day −10 and day −3, Day 8","[5]; Group A: daily oral 0.01 mg/kg Entecavir, PBS (no RNAi agent), individual mouse, Day 8",0.072 and 0.130
same,"Serum HBV DNA levels normalized to the average of pre-treatment day −10 and day −3, Day 15","[5]; Group A: daily oral 0.01 mg/kg Entecavir, PBS (no RNAi agent), individual mouse, Day 15",0.038 and 0.075
same,"Serum HBV DNA levels normalized to the average of pre-treatment day −10 and day −3, Day 22","[5]; Group A: daily oral 0.01 mg/kg Entecavir, PBS (no RNAi agent), individual mouse, Day 22",0.015
same,"Serum HBV DNA levels normalized to the average of pre-treatment day −10 and day −3, Day 29","[5]; Group A: daily oral 0.01 mg/kg Entecavir, PBS (no RNAi agent), individual mouse, Day 29",0.027
same,"Serum HBV DNA levels normalized to the average of pre-treatment day −10 and day −3, Day 36","[5]; Group A: daily oral 0.01 mg/kg Entecavir, PBS (no RNAi agent), individual mouse, Day 36",0.060
